Series [1] is described as follows: Cytotoxicity against ICR mouse BMDM assessed as reduction in cell viability incubated for 24 hrs by CCK8 assay. In kind it is toxicity, cell-based. The note with it: BMDM (bone marrow-derived macrophages). In general terms: Tetrazolium dyes change colour on reduction, which living cells bring about.
For series [2], the target named is NACHT, LRR and PYD domains-containing protein 3 (Mus musculus, UniProt Q8R4B8). Briefly: Inhibition of NLRP3 inflammasome activation in ICR mouse BMDM assessed as inhibition of LPS/ATP-stimulated IL-1 beta production in cell supernatant treated for 3 hrs with LPS followed by incubation with compound for 1 hr and later stimulated with ATP for 0.5 hrs by ELISA. The format is cell-based. (In an ELISA, binding on a coated surface is turned into a signal by an enzyme label.)
Chain of NACHT, LRR and PYD domains-containing protein 3 (Q8R4B8 whole entry, the tested form may be a part): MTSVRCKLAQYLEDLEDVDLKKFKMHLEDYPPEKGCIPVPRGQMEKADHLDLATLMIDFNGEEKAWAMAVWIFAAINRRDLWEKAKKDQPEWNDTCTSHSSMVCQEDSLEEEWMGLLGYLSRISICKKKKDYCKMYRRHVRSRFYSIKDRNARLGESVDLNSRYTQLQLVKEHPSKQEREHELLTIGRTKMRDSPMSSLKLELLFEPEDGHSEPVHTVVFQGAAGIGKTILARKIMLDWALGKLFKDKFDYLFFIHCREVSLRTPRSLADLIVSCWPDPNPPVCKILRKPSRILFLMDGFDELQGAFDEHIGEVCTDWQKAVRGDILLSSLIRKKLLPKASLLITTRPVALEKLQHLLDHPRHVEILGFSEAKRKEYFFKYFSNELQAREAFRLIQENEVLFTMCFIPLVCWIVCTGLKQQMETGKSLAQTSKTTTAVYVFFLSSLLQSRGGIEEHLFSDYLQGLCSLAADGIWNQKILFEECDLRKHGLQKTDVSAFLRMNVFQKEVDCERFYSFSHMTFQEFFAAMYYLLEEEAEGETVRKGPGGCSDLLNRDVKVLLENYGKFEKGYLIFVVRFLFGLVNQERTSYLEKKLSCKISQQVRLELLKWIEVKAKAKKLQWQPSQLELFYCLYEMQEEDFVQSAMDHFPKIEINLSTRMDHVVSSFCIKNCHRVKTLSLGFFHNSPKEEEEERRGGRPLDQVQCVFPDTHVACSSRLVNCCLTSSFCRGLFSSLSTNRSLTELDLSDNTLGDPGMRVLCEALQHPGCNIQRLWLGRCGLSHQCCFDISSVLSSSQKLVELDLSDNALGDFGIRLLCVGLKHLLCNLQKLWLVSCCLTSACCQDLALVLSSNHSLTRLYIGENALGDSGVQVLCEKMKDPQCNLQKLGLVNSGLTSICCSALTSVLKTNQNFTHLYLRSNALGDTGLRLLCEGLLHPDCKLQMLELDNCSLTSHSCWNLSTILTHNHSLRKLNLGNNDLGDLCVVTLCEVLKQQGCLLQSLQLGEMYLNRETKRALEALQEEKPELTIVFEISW

The subject of series [3] is Mus musculus. Briefly: Anti-inflammatory activity against LPS-stimulated acute lung injury C57BL/6 mouse model assessed as decrease in weight loss at 1 mg/kg, ip treated for 3 days and on third day administered with LPS at 30 mins post-compound challenge. In kind it is functional, organism-based. Particulars: time 3.0 day.
Series [4] deals with Mus musculus. Briefly: Anti-inflammatory activity against LPS-stimulated acute lung injury C57BL/6 mouse model assessed as decrease in weight loss at 5 mg/kg, ip treated for 3 days and on third day administered with LPS at 30 mins post-compound challenge. In kind it is functional, organism-based. The note with it: time 3.0 day.
In series [5] the test system is Mus musculus. As to the kind of experiment: Anti-inflammatory activity against LPS-stimulated acute lung injury C57BL/6 mouse model assessed as decrease in partial alveolar congestion in right lung at 5 mg/kg, ip treated for 3 days and on third day administered with LPS at 30 mins post-compound challenge and measured after 12 hrs by Hematoxylin-Eosin staining analysis. In kind it is functional, organism-based. The note with it: time 3.5 day.

The subject of series [6] is Mus musculus. Briefly: Anti-inflammatory activity against LPS-stimulated acute lung injury C57BL/6 mouse model assessed as decrease in alveolar dilation in right lung at 5 mg/kg, ip treated for 3 days and on third day administered with LPS at 30 mins post-compound challenge and measured after 12 hrs by Hematoxylin-Eosin staining analysis. In kind it is functional, organism-based. The note with it: time 3.5 day.

For series [7], the system named is Mus musculus. Briefly: Anti-inflammatory activity against LPS-stimulated acute lung injury C57BL/6 mouse model assessed as active animal at 5 mg/kg, ip treated for 3 days and on third day administered with LPS at 30 mins post-compound challenge. The format is functional, organism-based. The note with it: time 3.0 day.
For series [8], the system named is Mus musculus. Briefly: Anti-inflammatory activity against LPS-stimulated acute lung injury C57BL/6 mouse model assessed as decrease in thickening of alveolar septa in right lung at 5 mg/kg, ip treated for 3 days and on third day administered with LPS at 30 mins post-compound challenge and measured after 12 hrs by Hematoxylin-Eosin staining analysis. In kind it is functional, organism-based. The note with it: time 3.5 day.

Series [9] relates to Mus musculus. Briefly: Anti-inflammatory activity against LPS-stimulated acute lung injury C57BL/6 mouse model assessed as decrease in inflammatory cell infiltration in right lung at 5 mg/kg, ip treated for 3 days and on third day administered with LPS at 30 mins post-compound challenge and measured after 12 hrs by Hematoxylin-Eosin staining analysis. In kind it is functional, organism-based. The note with it: time 3.5 day.

As usually defined, the IC50 is the concentration at which inhibition is half-maximal.

The structures appear in SMILES notation. Active and inactive are the calls of the source. The rule behind the calls is not given here.

As to `C=C1C(=O)[C@]23[C@H](OC(=O)NC4CCCCC4)[C@H]1CC[C@H]2[C@]12C=CCC(C)(C)[C@H]1[C@H](O)[C@@]3(O)OC2`, in series [1], the IC50 at 24 h is greater than 10 µM. Also, the IC50 in [2] came to 0.135 µM.
Take `CC(C)(O)c1coc(S(=O)(=O)NC(=O)Nc2c3c(cc4c2CCC4)CCC3)c1`: the IC50 at 24 h in [1] was greater than 10 µM.
For `C=C1C(=O)[C@]23[C@H](OC(=O)NC4CCCC4)[C@H]1CC[C@H]2[C@]12C=CCC(C)(C)[C@H]1[C@H](O)[C@@]3(O)OC2`, in series [1], the IC50 at 24 h is greater than 10 µM. Also, the IC50 in series [2] turned out to be 0.178 µM.
For the compound `C=C1C(=O)[C@]23[C@H](O)[C@H]1CC[C@H]2[C@@]12CO[C@]3(O)[C@@H](O)[C@@H]1C(C)(C)CC[C@@H]2O` [ORIDONIN], the IC50 at 24 h in [1] is greater than 10 µM. The IC50 in series [2] came to 1.24 µM. The outcome in series [3] was Active.
Consider `C[C@@H]1C[C@H]2[C@@H]3CCC4=CC(=O)C=C[C@]4(C)[C@@]3(F)[C@@H](O)C[C@]2(C)[C@@]1(O)C(=O)CO`, for which the outcome in series [4], in series [5], in [6], in series [7], in [8] and in series [9] was Active.
With `C=C1C(=O)[C@]23[C@H](OC(=O)Nc4ccccc4Cl)[C@H]1CC[C@H]2[C@]12C=CCC(C)(C)[C@H]1[C@H](O)[C@@]3(O)OC2`, the IC50 at 24 h in series [1] was greater than 10 µM. Besides, the IC50 in [2] turned out to be 0.0886 µM.
On to `C=C1C(=O)[C@]23[C@H](O)[C@H]1CC[C@H]2[C@]12C=CCC(C)(C)[C@H]1[C@H](O)[C@@]3(O)OC2`, for which the IC50 at 24 h in [1] is greater than 10 µM. The IC50 in series [2] was found to be 0.131 µM.
With `C=C1C(=O)[C@]23[C@H](OC(=O)Nc4ccccn4)[C@H]1CC[C@H]2[C@]12C=CCC(C)(C)[C@H]1[C@H](O)[C@@]3(O)OC2`, in [1], the half-maximal inhibitory concentration (IC50) at 24 h is greater than 10 µM. For the same compound, in series [2], the IC50 came out at 0.0961 µM.
The matching figures for `C=C1C(=O)[C@]23[C@H](OC(=O)Nc4cccc5ccccc45)[C@H]1CC[C@H]2[C@]12C=CCC(C)(C)[C@H]1[C@H](O)[C@@]3(O)OC2`: greater than 10 µM and 0.0749 µM.
On the same counts, the results for `C=C1C(=O)[C@]23[C@H](OC(=O)Nc4cccc(Cl)c4)[C@H]1CC[C@H]2[C@]12C=CCC(C)(C)[C@H]1[C@H](O)[C@@]3(O)OC2` are greater than 10 µM and 0.0808 µM.

The values are drawn from ChEMBL document CHEMBL6071152, “Design, synthesis, and biological evaluation of oridonin derivatives as novel NLRP3 inflammasome inhibitors for the treatment of acute lung injury” (Eur J Med Chem, 2024).
